Consider eleven compounds from patent publication US20260199484A1, “PROTAC DEGRADERS OF MLLT1 AND/OR MLLT3” (DARK BLUE THERAPEUTICS LTD, priority 2024, published 2026).

For one assay, the system named is MV4-11 cells. Nature of the assay: MV4-11 cellular proliferative assay, Assay Format A (CellTiter-Glo, 120 h). Format: cell-based. To be noted: Homo sapiens, Assay format A, 120 h, read-out: IC50 (MV4-11 cellular proliferative assay). Here is the method: An MV4-11 proliferation assay was used to test the ability of compounds to reduce cell viability. MV4-11 cells (ATCC #CRL9591) were grown in IMDM medium (11510596, Gibco) supplemented with 10% fetal bovine serum (F7524, Gibco) and 1% Penicillin/Streptomycin (15140-122, Gibco) at 37° C. with 5% CO2. Cells were seeded in 384-well Elplasia plates (4447, Corning) at a density of 50 cells/well and treated with vehicle (DMSO) or compounds (10 serial semi-log dilutions, 30 μM as top concentration).
After 120 hours of treatment, cells were incubated for 10 min at RT with the CellTiter-Glo (CTG) reagent (G7571, Promega). Measurement of the luminescence signal was performed on a microplate reader (Ensight, PerkinElmer). CTG reagent measures the amount of ATP, which is directly proportional to the number of cells, to determine the number of viable cells in culture.
The data were analysed as follows:
[formula] • where x is the measured raw signal value of a well, (cr) is the median of the measured signal values for the Central Reference (DMSO) wells on a plate, (sr) is the median of the measured signal values for the Scale Reference (reference compound) wells on a plate.
[formula] • where the experimental set-up assumes the Hill parameters in certain ranges: S0~Central Reference (CR) from normalization (=Bottom), Sinf~Scale Reference (SR) from normalization (=Top), nHill ~1, AC50~within the measured concentration range.
In general terms: ATP-based viability assays read luminescence as a measure of living cells.

Another assay concerns the target T1, MLLT1 (Homo sapiens, UniProt Q03111).
T1 sequence (Q03111 1-559): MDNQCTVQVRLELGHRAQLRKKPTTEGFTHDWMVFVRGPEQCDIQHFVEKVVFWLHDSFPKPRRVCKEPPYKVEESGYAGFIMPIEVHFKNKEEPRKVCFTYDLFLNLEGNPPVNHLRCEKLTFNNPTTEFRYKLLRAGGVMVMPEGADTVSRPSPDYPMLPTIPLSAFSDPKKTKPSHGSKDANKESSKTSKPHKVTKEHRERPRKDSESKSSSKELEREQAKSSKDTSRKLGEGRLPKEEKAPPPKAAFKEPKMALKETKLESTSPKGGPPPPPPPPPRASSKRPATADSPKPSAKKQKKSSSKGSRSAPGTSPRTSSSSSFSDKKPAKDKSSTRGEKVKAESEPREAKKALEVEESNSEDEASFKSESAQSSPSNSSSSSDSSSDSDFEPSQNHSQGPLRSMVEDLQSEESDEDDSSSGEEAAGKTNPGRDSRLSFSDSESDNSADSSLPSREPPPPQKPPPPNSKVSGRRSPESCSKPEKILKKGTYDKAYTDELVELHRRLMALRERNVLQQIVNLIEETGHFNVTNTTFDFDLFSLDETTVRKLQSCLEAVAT
Nature of the assay: MLLT1 degradation assay in MV4-11 cells (JESS, 24 h). Format: cell-based. Also noted: endogenous in cells; host or cells: MV4-11 (ATCC CRL-9591). To be noted: vs DMSO control. The method, boiled down: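 MV4-11 cells treated at 1000, 100 and 10 nM (0.1% DMSO) for 24 h at 37° C; lysates (4 ug protein) run on JESS capillary immunoassay with MLLT1 and GAPDH antibodies. Peak areas give % degradation versus DMSO, binned A (≥75%) to D (<25%).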

For the compound `Cc1nn(CCCCCCCCNc2cccc3c2C(=O)N(C2CCC(=O)NC2=O)C3=O)c2cc(C(=O)Nc3cc4[nH]c([C@H]5CCCN5C)c(Cl)c4cn3)ccc12` (stereo partly drawn) [Example 18, N-(3-chloro-2-((R)-1-methylpyrrolidin-2-yl)-1H-pyrrolo[3,2-c]pyridin-6-yl)-1-(8-((2-(2,6-dioxopiperidin-3-yl)-1,3-dioxoisoindolin-4-yl)amino)octyl)-3-methyl-1H-indazole-6-carboxamide], the IC50 (as a rule, the concentration that gives 50% inhibition) with MV4-11 cells is less than 100 nM. On MLLT1, the “MLLT1% Degradation @ 0.01 μM” value was “A (Category A: A≥75% degradation)”, the “MLLT1% Degradation @ 0.1 μM” value is given as “A (Category A: A≥75% degradation)” and the “MLLT1% Degradation @ 1 μM” value is on record as “A (Category A: A≥75% degradation)”.

`Cc1nn(CCCCNc2cccc3c2C(=O)N(C2CCC(=O)NC2=O)C3=O)c2cc(C(=O)Nc3cc4[nH]c([C@H]5CCCN5C)cc4cn3)ccc12` (stereo partly drawn) [Example 21, 1-(4-((2-(2,6-dioxopiperidin-3-yl)-1,3-dioxoisoindolin-4-yl)amino)butyl)-3-methyl-N-(2-((R)-1-methylpyrrolidin-2-yl)-1H-pyrrolo[3,2-c]pyridin-6-yl)-1H-indazole-6-carboxamide]: the IC50 in the assay with MV4-11 cells is less than 100 nM. Further, on MLLT1, the “MLLT1% Degradation @ 0.01 μM” value is recorded as “A (Category A: A≥75% degradation)”, the “MLLT1% Degradation @ 0.1 μM” value was “A (Category A: A≥75% degradation)” and the “MLLT1% Degradation @ 1 μM” value is listed as “A (Category A: A≥75% degradation)”.

For `Cc1nn(CCCCCCNc2cccc3c2C(=O)N(C2CCC(=O)NC2=O)C3=O)c2cc(C(=O)Nc3cc4[nH]c([C@H]5CCCN5C)cc4cn3)ccc12` (stereo partly drawn) [Example 22, 1-(6-{[2-(2,6-dioxopiperidin-3-yl)-1,3-dioxoisoindol-4-yl]amino}hexyl)-3-methyl-N-{2-[(2R)-1-methylpyrrolidin-2-yl]-1H-pyrrolo[3,2-c]pyridin-6-yl}indazole-6-carboxamide], the IC50 in the assay with MV4-11 cells is less than 100 nM. On MLLT1, the “MLLT1% Degradation @ 0.01 μM” value is on record as “A (Category A: A≥75% degradation)”, the “MLLT1% Degradation @ 0.1 μM” value was “A (Category A: A≥75% degradation)” and the “MLLT1% Degradation @ 1 μM” value is reported as “A (Category A: A≥75% degradation)”.

Turning to `Cc1nn(CCCCCN2CCN(c3cc4c(cc3F)C(=O)N(C3CCC(=O)NC3=O)C4=O)CC2)c2cc(C(=O)Nc3cc4[nH]c([C@H]5CCCN5C)cc4cn3)ccc12` (stereo partly drawn) [Example 23, 1-(5-(4-(2-(2,6-dioxopiperidin-3-yl)-6-fluoro-1,3-dioxoisoindolin-5-yl)piperazin-1-yl)pentyl)-3-methyl-N-(2-((R)-1-methylpyrrolidin-2-yl)-1H-pyrrolo[3,2-c]pyridin-6-yl)-1H-indazole-6-carboxamide], the IC50 in the assay with MV4-11 cells is less than 100 nM. Also, on MLLT1, the “MLLT1% Degradation @ 0.01 μM” value is reported as “A (Category A: A≥75% degradation)”, the “MLLT1% Degradation @ 0.1 μM” value was “A (Category A: A≥75% degradation)” and the “MLLT1% Degradation @ 1 μM” value was “A (Category A: A≥75% degradation)”.

`Cc1nn(CCOCCOCCNc2cccc3c2C(=O)N(C2CCC(=O)NC2=O)C3=O)c2cc(C(=O)Nc3cc4[nH]c([C@H]5CCCN5C)cc4cn3)ccc12` (stereo partly drawn) [Example 25, 1-(2-(2-(2-((2-(2,6-dioxopiperidin-3-yl)-1,3-dioxoisoindolin-4-yl)amino)ethoxy)ethoxy)ethyl)-3-methyl-N-(2-((R)-1-methylpyrrolidin-2-yl)-1H-pyrrolo[3,2-c]pyridin-6-yl)-1H-indazole-6-carboxamide]: in the assay with MV4-11 cells, the IC50 was less than 100 nM. Further, on MLLT1, the “MLLT1% Degradation @ 0.1 μM” value is on record as “A (Category A: A≥75% degradation)” and the “MLLT1% Degradation @ 1 μM” value is given as “A (Category A: A≥75% degradation)”.

Regarding `Cc1nn(CCOCCNc2cccc3c2C(=O)N(C2CCC(=O)NC2=O)C3=O)c2cc(C(=O)Nc3cc4[nH]c([C@H]5CCCN5C)cc4cn3)ccc12` (stereo partly drawn) [Example 26, 1-(2-(2-((2-(2,6-dioxopiperidin-3-yl)-1,3-dioxoisoindolin-4-yl)amino)ethoxy)ethyl)-3-methyl-N-(2-((R)-1-methylpyrrolidin-2-yl)-1H-pyrrolo[3,2-c]pyridin-6-yl)-1H-indazole-6-carboxamide], the IC50 with MV4-11 cells is less than 100 nM. On MLLT1, the “MLLT1% Degradation @ 0.1 μM” value is “A (Category A: A≥75% degradation)” and the “MLLT1% Degradation @ 1 μM” value is recorded as “A (Category A: A≥75% degradation)”.

`Cc1nn(CCCC2CCN(c3cccc4c3C(=O)N(C3CCC(=O)NC3=O)C4=O)CC2)c2cc(C(=O)Nc3cc4[nH]c([C@H]5CCCN5C)cc4cn3)ccc12` (stereo partly drawn) [Example 27, 1-(3-(1-(2-(2,6-dioxopiperidin-3-yl)-1,3-dioxoisoindolin-4-yl)piperidin-4-yl)propyl)-3-methyl-N-(2-((R)-1-methylpyrrolidin-2-yl)-1H-pyrrolo[3,2-c]pyridin-6-yl)-1H-indazole-6-carboxamide]: the concentration for half-maximal inhibition (IC50) in the assay with MV4-11 cells is less than 100 nM. Also, at MLLT1, the “MLLT1% Degradation @ 0.01 μM” value is given as “A (Category A: A≥75% degradation)”, the “MLLT1% Degradation @ 0.1 μM” value was “A (Category A: A≥75% degradation)” and the “MLLT1% Degradation @ 1 μM” value was “A (Category A: A≥75% degradation)”.

On to `Cc1nn(CCCCCC2CCN(c3cccc4c3C(=O)N(C3CCC(=O)NC3=O)C4=O)CC2)c2cc(C(=O)Nc3cc4[nH]c([C@H]5CCCN5C)cc4cn3)ccc12` (stereo partly drawn) [Example 29, 1-(5-(1-(2-(2,6-dioxopiperidin-3-yl)-1,3-dioxoisoindolin-4-yl)piperidin-4-yl)pentyl)-3-methyl-N-(2-((R)-1-methylpyrrolidin-2-yl)-1H-pyrrolo[3,2-c]pyridin-6-yl)-1H-indazole-6-carboxamide], for which the IC50 with MV4-11 cells is less than 100 nM. On MLLT1, the “MLLT1% Degradation @ 0.01 μM” value was “B (Category B: 50%≤B<75% degradation)”, the “MLLT1% Degradation @ 0.1 μM” value is recorded as “A (Category A: A≥75% degradation)” and the “MLLT1% Degradation @ 1 μM” value is “A (Category A: A≥75% degradation)”.

`Cc1nn(CCCCCC#Cc2cccc3c2CN(C2CCC(=O)NC2=O)C3=O)c2cc(C(=O)Nc3cc4[nH]c([C@H]5CCCN5C)cc4cn3)ccc12` (stereo partly drawn) [Example 30, 1-(7-(2-(2,6-dioxopiperidin-3-yl)-1-oxoisoindolin-4-yl)hept-6-yn-1-yl)-3-methyl-N-(2-((R)-1-methylpyrrolidin-2-yl)-1H-pyrrolo [3,2-c]pyridin-6-yl)-1H-indazole-6-carboxamide]: the IC50 in the assay with MV4-11 cells was less than 100 nM. In addition, at MLLT1, the “MLLT1% Degradation @ 0.01 μM” value is “A (Category A: A≥75% degradation)”, the “MLLT1% Degradation @ 0.1 μM” value is listed as “A (Category A: A≥75% degradation)” and the “MLLT1% Degradation @ 1 μM” value is “A (Category A: A≥75% degradation)”.

Turning to `Cc1nn(CCCOCC#Cc2cccc3c2CN(C2CCC(=O)NC2=O)C3=O)c2cc(C(=O)Nc3cc4[nH]c([C@H]5CCCN5C)cc4cn3)ccc12` (stereo partly drawn) [Example 31, 1-(3-((3-(2-(2,6-dioxopiperidin-3-yl)-1-oxoisoindolin-4-yl)prop-2-yn-1-yl)oxy)propyl)-3-methyl-N-(2-((R)-1-methylpyrrolidin-2-yl)-1H-pyrrolo[3,2-c]pyridin-6-yl)-1H-indazole-6-carboxamide], the IC50 in the assay on MV4-11 cells is less than 100 nM. Moreover, on MLLT1, the “MLLT1% Degradation @ 0.01 μM” value is reported as “C (Category C: 25%≤C<50% degradation)”, the “MLLT1% Degradation @ 0.1 μM” value is “B (Category B: 50%≤B<75% degradation)” and the “MLLT1% Degradation @ 1 μM” value was “A (Category A: A≥75% degradation)”.

For `Cc1nn(CCCC#Cc2cccc3c2CN(C2CCC(=O)NC2=O)C3=O)c2cc(C(=O)Nc3cc4[nH]c([C@H]5CCCN5C)cc4cn3)ccc12` (stereo partly drawn) [Example 32, 1-(5-(2-(2,6-dioxopiperidin-3-yl)-1-oxoisoindolin-4-yl)pent-4-yn-1-yl)-3-methyl-N-(2-((R)-1-methylpyrrolidin-2-yl)-1H-pyrrolo[3,2-c]pyridin-6-yl)-1H-indazole-6-carboxamide], the IC50 in the assay with MV4-11 cells is less than 100 nM. In addition, at MLLT1, the “MLLT1% Degradation @ 0.01 μM” value is recorded as “B (Category B: 50%≤B<75% degradation)”, the “MLLT1% Degradation @ 0.1 μM” value is on record as “A (Category A: A≥75% degradation)” and the “MLLT1% Degradation @ 1 μM” value is “B (Category B: 50%≤B<75% degradation)”.
